{
  "source": "patent US20080096244A1",
  "about": "“D-AMINOACYLASE” (DAIICHI PURE CHEMICALS CO., LTD., priority 2002, published 2008)",
  "key": {"[1]": {"tested_on": "D-aminoacylase from Defluvibacter sp. A131-3 strain", "experiment": "Production of D-valine by resolution of N-acetyl-D,L-valine (HPLC)", "type": "biochemical", "conditions": "15% aqueous N-acetyl-D,L-valine, enzyme 200 U/mL, 40° C.", "description": "It was then confirmed that the strains that had been selected by the chromogenic process show rapid reduction of the N-acetyl-D-valine and increase of the D-valine in an amount corresponding to the reduction of the N-acetyl-D-valine.\nBy using 15% aqueous solution of N-acetyl-D,L-valine as a substrate, D-aminoacylase from Defluvibacter sp. A131-3 strain was added with in an amount of 200 U per 1 ml of the aqueous solution of the substrate, and the reaction was allowed to proceed at 40° C. for 3 days. The rate of D-valine production by resolution from the N-acetyl-D,L-valine was measured by the HPLC method described in Example 1 (2)."}, "[2]": {"tested_on": "D-aminoacylase from the Defluvibacter sp. A131-3 strain", "experiment": "Substrate specificity, acylase activity measurement using D-/L-amino acid oxidase chromogenic reagent", "type": "biochemical", "source_text": "(4) Substrate specificity: Substrate specificity of the acylase of the present invention was confirmed by using the following N-acetyl-D-amino acids and N-acetyl-L-amino acids as the substrate and combining therewith the D-amino acid oxidase or the L-amino acid oxidase. The acylase of the present invention acts on the following N-acetyl-D-amino acids but not on the N-acetyl-L-amino acids.\nIn the measurement of the reactivity with the L-amino acids, an oxidase for L-amino acids is used instead of the D-amino acid oxidase in the activity measurement as will be described below.\n4. Substrate specificity was determined by an activity measurement method using the chromogenic reagents for the D- and L-amino acid oxidases as described above."}},
  "data": [
    {"molecule": "CC(=O)N[C@H](C(=O)O)C(C)C", "note": "[N-Ac-L-Val, N-acetyl-L-valine]", "values": [
      {"measurement": "Decomposition of the L-form by the enzyme", "setting": "[1]", "value": "not decomposed at all"},
      {"measurement": "Substrate specificity: whether the enzyme acts on the substrate", "setting": "[2]; D- or L-amino acid oxidase detection", "value": "does not act on"},
      {"measurement": "Relative activity (% in relation to Met)", "setting": "[2]; activity of N-acetyl-D-methionine = 100, 100 mmol/L substrate solution, pH 8, 37° C., 30 minutes", "value": 0, "unit": "%"},
      {"measurement": "Relative activity (% in relation to Val)", "setting": "[2]; activity of N-acetyl-D-valine = 100, 100 mmol/L substrate solution, pH 8, 37° C., 30 minutes", "value": 0, "unit": "%"}
    ]}
  ]
}
